Assay results as given in patent US8163728B2, “Pyrazoles” (Hoffmann-La Roche Inc., priority 2009, dated 2012).

The compounds below were run against T1, GABA A α5 (Homo sapiens, UniProt P18507+P31644) (assay: [3H]flumazenil competition binding, human GABA A α5β3γ2 receptors in HEK293 cell membranes). Conditions: human receptor α5β3γ2 transiently transfected in HEK293; 0.5 nM [3H]flumazenil; 1 hour at 4° C.; means of two determinations; read-out: hKi GABA A α5.
T1 construct: expressed in transfected cells; host or cells: HEK293 cells, transiently transfected; membranes prepared from cell pellets
How it was run: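 Competition with [3H]flumazenil for binding to membranes of HEK293 cells transiently expressing human α5β3γ2, in Krebs-tris buffer pH 7.5. Incubated to equilibrium 1 h at 4 °C, filtered and scintillation-counted; Ki values are means of two determinations.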

Ki	SMILES
5.2 nM	Cc1onc(-c2ccc(F)cc2)c1/C=C/c1cc(C(=O)NC(C)C)[nH]n1 [Example 134, 5-{(E)-2-[3-(4-Fluoro-phenyl)-5-methyl-isoxazol-4-yl]-vinyl}-2H-pyrazole-3-carboxylic acid isopropylamide]
11 nM	Cc1onc(-c2ccc(F)cc2)c1/C=C/c1cc(C(=O)NC(C)(C)CO)[nH]n1 [Example 138, 5-{(E)-2-[3-(4-Fluoro-phenyl)-5-methyl-isoxazol-4-yl]vinyl}-2H-pyrazole-3-carboxylic acid (2-hydroxy-1,1-dimethyl-ethyl)-amide]
3 nM	Cc1onc(-c2ccc(F)cc2)c1/C=C/c1cc(C(=O)NC(C)CO)[nH]n1 (stereo not shown) [Example 139, 5-{(E)-2-[3-(4-Fluoro-phenyl)-5-methyl-isoxazol-4-yl]-vinyl}-2H-pyrazole-3-carboxylic acid (2-hydroxy-1-methyl-ethyl)-amide]
3.8 nM	Cc1onc(-c2ccc(F)cc2)c1/C=C/c1cc(C(=O)NCC(C)(C)O)[nH]n1 [Example 140, 5-{(E)-2-[3-(4-Fluoro-phenyl)-5-methyl-isoxazol-4-yl]vinyl}-2H-pyrazole-3-carboxylic acid (2-hydroxy-2-methyl-propyl)-amide]
8.1 nM	CCNC(=O)c1cc(/C=C/c2c(-c3ccc(F)cc3)noc2C)n[nH]1 [Example 141, 5-{(E)-2-[3-(4-Fluoro-phenyl)-5-methyl-isoxazol-4-yl]vinyl}-2H-pyrazole-3-carboxylic acid ethylamide]
4.8 nM	Cc1onc(-c2ccc(F)cc2)c1/C=C/c1cc(C(N)=O)[nH]n1 [Example 142, 5-{(E)-2-[3-(4-Fluoro-phenyl)-5-methyl-isoxazol-4-yl]vinyl}-2H-pyrazole-3-carboxylic acid amide]

The next lines start with the compound.

SMILES	Ki
Cc1onc(-c2ccc(F)cc2)c1/C=C/c1cc(C(=O)N2CCOCC2)n(C)n1 [Example 129, (5-{(E)-2-[3-(4-Fluoro-phenyl)-5-methyl-isoxazol-4-yl]vinyl}-2-methyl-2H-pyrazol-3-yl)-morpholin-4-yl-methanone]	11.8 nM
Cc1onc(-c2ccc(F)cc2)c1/C=C/c1cc(C(=O)NC(C)CO)n(C)n1 (stereo not shown) [Example 130, 5-{(E)-2-[3-(4-Fluoro-phenyl)-5-methyl-isoxazol-4-yl]vinyl}-2-methyl-2H-pyrazole-3-carboxylic acid (2-hydroxy-1-methyl-ethyl)-amide]	0.9 nM
Cc1onc(-c2ccc(F)cc2)c1/C=C/c1cc(C(=O)N2CCS(=O)(=O)CC2)[nH]n1 [Example 131, (1,1-Dioxo-1,6-thiomorpholin-4-yl)-(5-{(E)-2-[3-(4-fluoro-phenyl)-5-methyl-isoxazol-4-yl]-vinyl}-2H-pyrazol-3-yl)-methanone]	36.5 nM
Cc1onc(-c2ccc(F)cc2)c1/C=C/c1cc(C(=O)N2CCOCC2)[nH]n1 [Example 132, (5-{(E)-2-[3-(4-Fluoro-phenyl)-5-methyl-isoxazol-4-yl]vinyl}-2H-pyrazol-3-yl)-morpholin-4-yl-methanone]	50.6 nM
Cc1onc(-c2ccc(F)cc2)c1/C=C/c1cc(C(=O)NCC(F)(F)F)[nH]n1 [Example 133, 5-{(E)-2-[3-(4-Fluoro-phenyl)-5-methyl-isoxazol-4-yl]vinyl}-2H-pyrazole-3-carboxylic acid (2,2,2-trifluoro-ethyl)-amide]	4.1 nM
Cc1onc(-c2ccc(F)cc2)c1/C=C/c1cc(C(=O)N2CC3(COC3)C2)n(C)n1 [Example 135, (5-{(E)-2-[3-(4-Fluoro-phenyl)-5-methyl-isoxazol-4-yl]-vinyl}-2-methyl-2H-pyrazol-3-yl)-(2-oxa-6-aza-spiro[3.3]hept-6-yl)-methanone]	2.4 nM
Cc1onc(-c2ccc(F)cc2)c1/C=C/c1cc(C(=O)N2CC3(COC3)C2)[nH]n1 [Example 137, (5-{(E)-2-[3-(4-Fluoro-phenyl)-5-methyl-isoxazol-4-yl]vinyl}-2H-pyrazol-3-yl)-(2-oxa-6-aza-spiro[3.3]hept-6-yl)-methanone]	1.4 nM
